Laboratory results: EP3797781A1, “USE OF EC-7072 AND SYNERGIC COMPOSITIONS THEREOF IN TREATMENT OF CHRONIC LYMPHOCYTIC LEUKEMIA” (priority 2019, dated 2021)

Legend:
Assay type in all cases: cell-based, human
[1] = tested on: NK cells (CD3^-CD56^+); test: NK cell numbers, viability and apoptosis in PBMCs (flow cytometry, DiOC6(3)/PI staining)
Experimental: To evaluate absolute cell numbers, an equal volume of PKH26 reference microbeads (Sigma-Aldrich) was added to each sample after staining for immune subset identification. Microbeads (5x10^3) were acquired by flow cytometry and absolute numbers of each immune population within the sample were calculated. Normalized percentage values were calculated considering the control (DMSO)-treated cells as 100%.
Cell viability and apoptosis were evaluated by double-staining with the mitochondrial inner transmembrane potential (ΔΨm)-sensitive dye DiOC6(3) (3,3'-dihexyloxacarbocyanine iodide; Sigma-Aldrich) and the exclusion dye propidium iodide (PI; Immunostep), allowing identification of apoptotic [DiOC6(3)^low PI^-] and dead [PI^+] cells as per Proc. Natl. Acad. Sci. U.S.A. (2014) 111(8):3020-3025 and Methods Mol. Biol. (2016) 1419:1-16. Briefly, PBMCs were resuspended in culture medium containing 20 nM DiOC6(3) and incubated for 30 minutes at 37 °C. Then, PI (1 µg/mL) was added and cells were further incubated for 10 minutes at room temperature (RT). Cells were analyzed by flow cytometry considering DiOC6(3)^+PI^- cells as viable. In some experiments, apoptosis was evaluated by staining with Annexin V/PI. Thus, PBMCs were incubated in Annexin V binding buffer containing 5 µg/mL Annexin V-FITC (Biolegend) for 15 minutes at RT and PI (1 µg/mL) was subsequently added. Data were normalized to the untreated control as a percentage. Only samples with at least 60% of viable cells (DiOC6(3)^+; Annexin V^-) in the control (DMSO) condition were employed in this study.
The effect of EC-7072 toward healthy immune subsets, T lymphocytes and natural killer (NK) cells, which are chronically exposed to leukemia cells in the peripheral blood of patients with CLL was assessed by: • (i) incubating PBMCs isolated from patients with CLL (n = 10) following treatment with increasing concentrations of EC-7072 (0 - 400 nM) for 24 hours. Numbers of T cells (CD3^+CD56^-) (Figure 2A) and NK cells (CD3^-CD56^+) (Figure 2B) were evaluated by flow cytometry and normalized to their respective control (DMSO) condition for each individual patient to obtain percentage of relative number of T cells and NK cells, respectively; • (ii) incubating PBMCs isolated from patients with CLL (n = 6 - 10) following treatment with increasing concentrations of EC-7072 (0 - 400 nM) for 24 hours. Viability of immune subsets (leukemia cells, T cells and NK cells) was determined by cytofluorometric assessment of DiOC6(3)/PI staining and normalized to their respective control (DMSO) condition for each individual patient to obtain percentage of viable [DiOC6(3)^+] cells (Figures 2C and 2D); • (iii) incubating PBMCs isolated from patients with CLL (n = 11) following treatment with DMSO or EC-7072 (200 nM) for 24 hours. Numbers of CD4^+ cells (Figure 2E) and CD8^+ T cells (Figure 2F) were evaluated by flow cytometry and normalized to their respective control (DMSO) condition for each individual experiment; • (iv) incubating PBMCs isolated from healthy donors (n = 15) following treatment with EC-7072 (200 nM) for 24 hours. […]

[2] = tested on: HK-2 cells; test: Cell death of HK-2 cells by PI staining; conditions: 200 nM, 24 hours; n = 3
Experimental: Effectiveness of EC-7072 against different B-cell malignancies was assessed by; • (i) incubating primary fibroblasts from healthy donors (n = 4) and HK-2 cells from healthy human adult kidney (n = 3) following treatment with MTA (200 nM) or EC-7072 (200 nM) for 24 hours. Cell death was evaluated by PI staining to obtain the percentages corresponding to the [PI^+] subset (Figure 5A) and the mean percentage of [PI^+] cells (Figure 5B); • (ii) treating MEC-1, GRANTA-519, Z-138, JVM-2, CA-46, Ramos, Raji and U266 cell lines (n = 3) following treatment with EC-7072 (500 nM) followed by incubation for 24 hours. Cell viability was assessed by DiOC6(3)/PI staining and normalized to control (DMSO) condition to obtain mean percentage of viable [DiOC6(3)^+] cells (Figure 5C).

[3] = tested on: BCL2; test: BCL2 levels by intracellular flow cytometry in isolated CLL cells; conditions: 200 nM, 12 and 18 hours; isolated CLL cells (n = 6)
Experimental: The dysregulation of BCL2 expression in primary CLL by EC-7072 was evaluated by: • (i) incubating isolated CLL cells (n = 6) from patients with CLL following treatment with EC-7072 (200 nM) for 6 hours and extracting total RNA. Relative expression of BLC2 was determined by qPCR to obtain the mean relative expression to the control (DMSO) condition (Figure 6F); • (ii) incubating isolated CLL cells (n = 6) following treatment with 200 nM EC-7072 for 12 and 18 hours. BCL2 levels were evaluated by intracellular flow cytometry (Figure 6G); • (iii) incubating isolated T cells (n = 3) from patients with CLL following treatment with EC-7072 (200 nM) for 6 hours and extracting total RNA. Relative expression of BLC2 was determined by qPCR to obtain the mean relative expression to the control (DMSO) condition (Figure 6H); • (iv) incubating PBMCs (Figure 6I) and isolated T cells (Figure 6J) from patients with CLL (n = 3) following treatment with 200 nM EC-7072 for 24 hours. T-cell death and apoptosis were assessed by DiOC6(3)/PI staining to obtain percentages of viable [DiOC6(3)^+] cells and the mean percentages of apoptotic [DiOC6(3)^low PI^-] and dead [PI^+] cells.

For CO[C@@H]([C@@H]1Cc2cc3cc(O[C@H]4C[C@@H](O[C@H]5C[C@@H](O)[C@H](O)[C@@H](C)O5)[C@H](O)[C@@H](C)O4)c(C)c(O)c3c(O)c2C(=O)[C@H]1O[C@H]1C[C@@H](O[C@H]2C[C@@H](O[C@H]3C[C@](C)(O)[C@H](O)[C@@H](C)O3)[C@@H](O)[C@@H](C)O2)[C@H](O)[C@@H](C)O1)[C@@H](O)C(C)=O [EC-7072, mithramycin SK], the “ratio of apoptosis in NK cells relative to NK cell death” value ([1]; 200 nM, 24 hours, PBMCs from healthy donors (n = 4), Figure 2R) was “far lower ratio of apoptosis in NK cells relative to NK cell death than does EC-7073”, the “viability of NK cells, comparison of mithralogs” value ([1]; 200 nM, 24 hours, PBMCs from healthy donors (n = 10), Figure 2O) was “not exhibit toxicity” and the “cell numbers and viability of NK cells” value ([1]; 200 nM, 24 hours, PBMCs from healthy donors (n = 15), compared with PBMCs from patients with CLL) was “comparable effects”. For the same compound, the NK cell survival ([1]; 200 nM, 24 hours, PBMCs from patients with CLL) was “only slightly altered”, the “toxicity against NK cells compared with fludarabine” value ([1]; EC-7072 200 nM 24 hours vs fludarabine 10 µM 24 hours, PBMCs from patients with CLL (n = 6 - 8), Figure 4F) was “significantly less toxic than fludarabine” and the “toxicity against NK cells compared with leukemia cells” value ([1]; high doses (400 nM), 24 hours, PBMCs from patients with CLL) was “significantly less toxic against NK cells than leukemia cells”. The “viability of HK-2 cells (PI^+ cells)” value [2] was “did not markedly affect the viability” and the “protein levels of BCL2” value [3] was “mild, but significant, decrease”.
